According to patent US20100138935A1, “Detection of cellular stress” (priority 2004, published 2010):
Where two headings read alike, the source gives them in different places.

Columns and labels:
[1] = system: HO-1-LacZ (HOZ) transgene; test: LacZ transgene expression in HO-1-LacZ (HOZ) reporter mice; type: in vivo, mouse; conditions: female HOZ mice, 13 mg/kg i.p. in isotonic saline, 8 hours or 24 hours
Protocol: (§1) Each test compound was dissolved in the appropriate vehicle solution and administered by intraperitoneal injection (i.p.) at a dose volume of 10 ml/kg. Wherever possible, both naive (untreated) and vehicle-treated controls were used. If a test item whose toxicity in the mouse is poorly characterised was to be used, a dose-ranging experiment was conducted prior to the main experiment. The test item was administered to a single mouse which was monitored for any adverse effects 6-8 hours and 24 hours later. If the single dose ranging mouse tolerated the treatment, the remaining mice were administered the test item according to the protocol.
(§2) Two slices of tissue (˜2 mm thickness) were removed for histochemical analysis of LacZ expression according to methods described below.
(§3) Tissues were washed with PBS and prefixed in 0.2% glutaraldehyde in PBS containing 0.1M MgCl2 and 5 mM EDTA, pH 7.3, for 4 hours at 4° C. on a shaker. After fixation, the tissues were transferred to 20% Sucrose solution and dehydrated overnight at 4° C. The next day they were embedded in cryo-M-bed medium on cork discs and lowered slowly into liquid nitrogen then transferred to −80° C. until sections were required.
(§4) Cryostat sample and chamber temperatures were set to −30° C. The sample to be sectioned was placed in the cryostat one hour prior to sectioning to allow equilibration at the appropriate temperature. Frozen sections (10 μm) were cut and placed on aminopropyltriethoxysilane (APES) coated slides.
(§5) Prior to staining, sections were incubated in 0.2% glutaraldehyde (as above) for 10 minutes at room temperature then washed twice (5 min each) in PBS containing 2 mM MgCl2, 0.01% sodium deoxycholate and 0.02% % Nonidet-P40. Sections were then […] the same wash solution containing 1 mg/ml X-gal, 5 mM potassium ferrocyanide and 5 mM potassium ferricyanide overnight at 37° C. then washed twice in PBS for 5 min, allowed to air dry and mounted in aqueous mounting medium (Hydromount). Slides were evaluated and photographed. • Frozen Method 2
Tissues were excised, immediately placed into chilled 4% paraformaldehyde containing 0.1% glutaraldehyde and 2 mM MgCl2 in PBS, and fixed in the above solution for 3 hours at 2-8° C. with gentle shaking. Fixed tissues were washed at 2-8° C. for 3×5 minutes with chilled PBS containing 2 mM MgCl2 and dehydrated overnight at 2-8° C. in PBS containing 2 mM MgCl2 and 30% (w/v) sucrose overnight The next day dehydrated tissues were embedded in OCT embedding medium using an isopentane/dry ice bath. Embedded tissues were stored at −70° C. until they could be cryosectioned.
Frozen sections were washed three times for 5 minutes in PBS containing 2 mM MgCl2 at 2-8° C. then 3×30 min in detergent wash (PBS containing 2 mM MgCl2 0.01% Nonidet P40 and 0.1% Sodium Deoxycholate) at 2-8° C. They were then stained overnight in PBS containing 2 mM MgCl2, 0.02% Nonidet P40, 0.1% Sodium Deoxycholate, 5 mM Potassium ferrocyanide, 5 mM Potassium ferricyanide, and 0.1% X-gal at 37° C. The next day, the slides were washed three times for 5 minutes in PBS containing 2 mM MgCl2 followed by three times for 5 minutes in PBS at room temperature. They were equilibrated with 100% ethanol (5 min) and counterstained with Eosin for 1 min at room temperature. Following dehydration and mounting they were evaluated and photographed. • Whole Mount Method
Tissue specimens that had been prefixed in fresh 4% paraformaldehyde were stained immediately using the procedure for “Whole Mount X-Gal Histochemistry of Transgenic Animal Tissues” (see http://www.rodentia.com/wmc/docs/lacZ bible.html), summarised below) was followed, and the post-fixed tissues were transferred to 70% (v/v) ethanol.
Following fixation for one hour in 4% paraformaldehyde, tissues were rinsed three times, for thirty minutes each, with rinse buffer (100 mM sodium phosphate (pH 7.3), 2 mM MgCl2, 0.01% sodium deoxycholate, 0.02% NP-40) at room temperature. […]

HOZ mice [2] = test: Plasma ALT as a marker of hepatotoxicity in HOZ mice; type: in vivo, mouse; conditions: 13 mg/kg; for Plasma ALT: female
Protocol: (§6) Terminal blood samples were taken by cardiac puncture into lithium/heparin-coated tubes for preparation of plasma. Tissues, as defined in each protocol, were routinely dissected as follows:
(§7) Following removal into tubes suitable for plasma preparation, venous blood samples were mixed on a roller for 10 minutes then cooled on ice. Red blood cells were removed by centrifugation at 2,000 rpm for 10 minutes at 8-10° C. The supernatant (plasma) was transferred to a second tube and stored at −70° C. until required for analysis.
(§8) Plasma samples were analysed for appropriate analytes on a Roche autoanalyser (Cobas Integra 400) according to the manufacturer's instructions. The routine markers measured included: (for liver damage) plasma alanine aminotransferase (ALT), aspartate aminotransferase (AST) and alkaline phosphatase (ALP) and (for kidney damage) plasma creatinine and blood urea nitrogen (BUN).
Two plasma enzyme markers, ALT and AST, were used as markers of hepatotoxicity in HOZ mice treated with cadmium chloride or sodium arsenite. The results of this analysis for HOZ mice treated with 10 mg/kg cadmium chloride are shown in Table 1 and for HOZ mice treated with 2-8 mg/kg cadmium chloride or 13 mg/kg sodium arsenite in Tables 2 and 3.

HOZ mice [3] = test: Plasma AST as a marker of hepatotoxicity in HOZ mice; type: in vivo, mouse; conditions: female, 13 mg/kg
Protocol: as §6, §7, §8
Two plasma enzyme markers, ALT and AST, were used as markers of hepatotoxicity in HOZ mice treated with cadmium chloride or sodium arsenite. […]

HOZ mice [4] = test: BUN as a marker of nephrotoxicity in HOZ mice; type: in vivo, mouse; conditions: female, 13 mg/kg
Protocol: as §6, §7, §8
The increase in BUN was 6-fold at 8 hours and 44-fold after 24 hours.

p21-LacZ (WAZ) transgene = type: in vivo, mouse
Protocol: as §1, §2
Mouse brains were dissected so as to reveal the dentate gyrus as fully as possible. In the case of the kidneys, one kidney was cut in longitudinal section and the other in transverse section.
as §3, §4, §5
In experiments on WAZ44 mice, single doses of etoposide (of up to 40 mg/kg) were administered i.p. Animals were killed after 24 hours and tissues fixed and stained for LacZ expression.
Acrylamide, at a total dose of 150 mg/kg, induces neuropathy manifesting as partial paralysis approximately 7 days after the start of treatment. The dose may be administered as a single injection or divided; however, the effect depends upon the total dose, and since a single dose of 150 mg/kg is likely to be acutely toxic, a five-day coursed of injections of 30 mg/kg is preferred. Acrylamide intoxication is associated with both central and peripheral effects; the central effects include behavioural changes (increased milk-licking) which occur within two days of dosing, preceding peripheral changes such as reduced hind-limb grip and reduced locomotor activity by up to three weeks (Teal and Evans, 1982). In experiments on WAZ44 mice, five doses of acrylamide (30 mg/kg) were administered i.p.
A frozen section from the brain of an acrylamide-treated WAZ44 mouse was prepared and stained using Frozen Method 1. A dissecting microscope was used to view the slides and generate photomicrographs (a) transverse section of whole brain, original magnification ×10; (b) dentate gyrus and hippocampus, original magnification ×25 (c) cortex, original magnification ×63.
WAZ mice received single i.p. injections of etoposide (40 mg/kg); mercuric chloride (HgCl2, 8.5 mg/kg); lipopolysaccharide (LPS, 1.5 mg/kg) or paracetamol (300 mg/kg). WAZ mice received a single i.p. injection of each compound at a single dose level (see FIG. 5). Twenty-four hours later, the mice were killed and the brains sectioned and stained for LacZ expression.

[5] = dissolved in DMSO, injected intra-peritoneally; cited from earlier work
[6] = system: HO-1-LacZ reporter transgene in HEK293 cells; test: Transient transfection of HO-1-LacZ reporter construct into HEK293 cells, induction with haemin; type: cell-based, mouse
From the text: We have used RedET recombination cloning (Zhang et al., 2000) to produce a HO-1-LacZ reporter transgene. A LacZ-SV40polyA minigene was engineered to contain homologous regions to exons 1 and 2 of the HO-1 gene. This minigene cassette also contains a bacterial Amp gene, at the 3′-end, which was used as a selectable marker during cloning. The minigene was then introduced, by homologous recombination, into a BAC clone containing the mouse HO-1 locus (clone RPCI-23 290L07, HGMP Resource Centre) substituting for the endogenous HO-1 exon1 and intron1 sequences. Thus, the HO-1 promoter would express LacZ from the ATG start codon, in place of the HO-1 protein. The correct position of the LacZ-SV40polyA minigene was confirmed by sequencing both the 5′- and 3′-junction regions. The HO-1 reporter locus, containing most of the HO-1 gene together with 16.5 kb of upstream promoter and 8 kb of 3′ sequence, was then recombined out from the BAC clone into the pACYC low copy number plasmid backbone.

[7] = WAZ mice, single i.p. injection (etoposide 40 mg/kg; HgCl2 8.5 mg/kg; LPS 1.5 mg/kg; paracetamol 300 mg/kg), 24 hours

## O=[As]O [Sodium Arsenite, sodium arsenite]
[1]
  HOZ transgene expression in liver: expression of the HOZ transgene at both time points
HOZ mice [2]; HOZ mice
  hepatotoxic response (plasma ALT, AST): did not exhibit a hepatotoxic response
HOZ mice [2]; 8 hours
  Plasma ALT: 43.0 u/L
HOZ mice [2]; 24 hours
  Plasma ALT: 26.7 u/L
HOZ mice [3]; 8 hours
  Plasma AST: 107.3 u/L
HOZ mice [3]; 24 hours
  Plasma AST: 67.8 u/L
HOZ mice [4]; 8 hours
  BUN: 5.62
HOZ mice [4]; 24 hours
  BUN: 3.50

## COc1cc([C@@H]2c3cc4c(cc3[C@@H](O[C@@H]3O[C@@H]5CO[C@@H](C)O[C@H]5[C@H](O)[C@H]3O)[C@H]3COC(=O)[C@H]23)OCO4)cc(OC)c1O [etoposide]
p21-LacZ (WAZ) transgene; WAZ44 mice, single doses of up to 40 mg/kg i.p., killed after 24 hours
  LacZ transgene expression in tissues: significant expression in the spleen, the thymus and in some regions of the brain
p21-LacZ (WAZ) transgene; mouse, in vivo
  expression of the WAZ transgene in the brain: high levels of expression
  pattern of WAZ transgene induction in the brain: induced expression in the same cells within the various regions in the brain
[5]
  LD50: 40 mg/kg

## C=CC1=C(C)c2cc3[n-]c(cc4nc(cc5[n-]c(cc1n2)c(C)c5C=C)C(C)=C4CCC(=O)O)c(CCC(=O)O)c3C.[Cl-].[Fe+3] [haemin]
[6]
  increase in the LacZ labelling index over uninduced control cells: 11 fold

## [Cl][Hg][Cl] [mercuric chloride]
p21-LacZ (WAZ) transgene; [7]
  expression of the WAZ transgene in the brain: high levels of expression
  pattern of WAZ transgene induction in the brain: induced expression in the same cells within the various regions in the brain

## CC(=O)Nc1ccc(O)cc1 [paracetamol]
p21-LacZ (WAZ) transgene; mouse, in vivo
  expression of the WAZ transgene in the brain: high levels of expression
  pattern of WAZ transgene induction in the brain: distinct pattern of induction within the hippocampus, cerebellum and cortex

## lipopolysaccharide [LPS]
p21-LacZ (WAZ) transgene; [7]
  expression of the WAZ transgene in the brain: high levels of expression
  pattern of WAZ transgene induction in the brain: induced expression in the same cells within the various regions in the brain
